Assay results from patent publication US11938121B2, “Treatment of infections and biofilm formation using a cellulose synthase inhibitor” (Purdue Research Foundation, priority 2020, dated 2024).

Molecular target: T1, GFP-CESA6c: GFP-tagged central cytosolic domain of AtCESA6 (cellulose synthase, CESA6) with a His-SUMO tag (Arabidopsis thaliana, UniProt Q94JQ6)
T1 construct: His-SUMO; made in house; host or cells: E. coli
T1 sequence (Q94JQ6 322-868 limits assumed): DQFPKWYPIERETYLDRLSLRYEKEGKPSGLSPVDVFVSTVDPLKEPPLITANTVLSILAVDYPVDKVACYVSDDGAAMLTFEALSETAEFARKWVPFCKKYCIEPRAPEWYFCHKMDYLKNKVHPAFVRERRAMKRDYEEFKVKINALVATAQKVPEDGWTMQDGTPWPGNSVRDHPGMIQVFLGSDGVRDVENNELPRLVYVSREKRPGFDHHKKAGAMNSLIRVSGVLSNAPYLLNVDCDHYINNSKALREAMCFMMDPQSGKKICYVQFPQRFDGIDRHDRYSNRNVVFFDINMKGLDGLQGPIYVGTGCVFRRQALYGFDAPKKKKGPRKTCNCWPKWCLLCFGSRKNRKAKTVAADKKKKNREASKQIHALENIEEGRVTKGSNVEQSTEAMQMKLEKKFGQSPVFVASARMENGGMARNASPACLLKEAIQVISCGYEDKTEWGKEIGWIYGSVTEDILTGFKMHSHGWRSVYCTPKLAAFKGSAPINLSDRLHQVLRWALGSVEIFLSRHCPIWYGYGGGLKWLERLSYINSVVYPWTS
Experiment: Microscale thermophoresis (MST) binding to purified GFP-tagged CESA6c (wild-type)
Settings: FIGS. 3K-3M, 100 nM GFP-CESA6c purified from E. coli, pH 7.5, 10 mM MgCl2, 0.05% Tween 20, 5% DMSO, triplicate, read-out: Kd, thermophoresis binding curve, GFP-CESA6c
From the text: FIGS. 3A-3Q. […] FIG. 3A to FIG. 3G. […] FIG. 3A. Representative 5-day-old dark-grown Arabidopsis Col-0 seedlings grown on growth medium supplemented with different concentrations of ES20 or ES20-1. Scale bar: 1 cm. FIG. 3B. Quantification of hypocotyl length of 5-day-old dark-grown Arabidopsis Col-0 seedlings described in FIG. 3A. Data represent mean±SD (n=12 seedlings). FIG. 3C. Quantification of crystalline cellulose content in the hypocotyl cell walls of 7-day-old dark-grown Col-0 seedlings grown on growth medium supplemented with DMSO (0.1%), 1 μM ES20, or 1 μM ES20-1. Data represent mean±SD (n=3 biological replicates). FIG. 3D and FIG. 3E. […] FIG. 3D. Representative image of 6-day-old rice seedlings grown in sterile water supplemented with DMSO (0.1%), 20 μM ES20, or 20 μM ES20-1. Scale bar: 1 cm. FIG. 3E. Quantification of root length of rice seedlings as described in FIG. 3D. Data represent mean±SD (n=10 seedlings). FIG. 3F and FIG. 3G. […] FIG. 3F. Representative image of 6-day-old maize seedlings grown in sterile water supplemented with DMSO (0.1%), 20 μM ES20, or 20 μM ES20-1. Scale bar: 1 cm. FIG. 3G. Quantification of root length of maize seedlings as described in FIG. 3F. Data represent mean±SD (n=12 seedlings). […] FIG. 3H. Representative immunoblot from a DARTS assay of ES20-1 and YFP-AtCESA6. FIG. 3I. Quantitative analysis of the band intensity of YFP-AtCESA6 and SEC12 in ES20-1-treated samples divided by that of DMSO-treated samples in the DARTS assay described in FIG. 3H. Data represent mean±SD (n=6 biological replicates). FIGS. 3J-3N. […] FIG. 3J. Coomassie blue staining of purified GFP-tagged CESA6c with a His-SUMO tag (lane 2). FIGS. 3K, 3L, 3M, 3N. […] FIG. 3O. Coomassie blue staining of purified GFP-tagged CESA6c^P595S with a His-SUMO tag (lane 2). FIG. 3P and FIG. 3Q. […] Statistically significant differences in FIG. 3B were determined using one-way ANOVA followed by Tukey's multiple comparisons test. Lower-case letters represent ANOVA results for plants grown on medium with 0.1% DMSO, different concentrations of ES20 or ES20-1. […]

Cc1ccccc1C(=O)NNC(=S)NC(=O)c1ccccc1 [ES20-1]
Kd: 4.4 ± 2.5 µM
